According to ChEMBL document CHEMBL1201862, “PubChem BioAssay data set” (2004):
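Test compounds were applied to cells in 96-well plates for 48 hours at 5 doses. At the GI50, growth is halved.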 Active and inactive are the calls of the source. Cut-off read from the data, not from the text of the source: active = GI50 up to about 1.1 µM and inactive = higher.

Tests used:
Assay in all cases: DTP human tumour cell line panel, 48 h
NCI-H522 = tested on: NCI-H522
KM12 = tested on: KM12
UACC-257 = tested on: UACC-257
ACHN = tested on: ACHN
U-251 = tested on: U-251
IGROV-1 = tested on: IGROV-1
UO-31 = tested on: UO-31
HCT-116 = tested on: HCT-116
COLO 205 = tested on: COLO 205
RXF 393 = tested on: RXF 393
OVCAR-4 = tested on: OVCAR-4
OVCAR-3 = tested on: OVCAR-3
SK-MEL-2 = tested on: SK-MEL-2
SF-539 = tested on: SF-539
MCF7 = tested on: MCF7
Hs-578T = tested on: Hs-578T
OVCAR-8 = tested on: OVCAR-8
SNB-75 = tested on: SNB-75
EKVX = tested on: EKVX
SF-268 = tested on: SF-268
HCT-15 = tested on: HCT-15
SF-295 = tested on: SF-295
MDA-MB-435 = tested on: MDA-MB-435
SK-MEL-5 = tested on: SK-MEL-5
NCI-H226 = tested on: NCI-H226
NCI-H460 = tested on: NCI-H460
NCI/ADR-RES = tested on: NCI/ADR-RES
A549 = tested on: A549
A498 = tested on: A498
Malme-3M = tested on: Malme-3M
MDA-MB-231 = tested on: MDA-MB-231
CAKI-1 = tested on: CAKI-1
T47D = tested on: T47D
LOX IMVI = tested on: LOX IMVI
SW-620 = tested on: SW-620
786-0 = tested on: 786-0
NCI-H23 = tested on: NCI-H23
OVCAR-5 = tested on: OVCAR-5
UACC-62 = tested on: UACC-62
SNB-19 = tested on: SNB-19
DU-145 = tested on: DU-145
TK-10 = tested on: TK-10
M14 = tested on: M14
MDA-N = tested on: MDA-N
SK-MEL-28 = tested on: SK-MEL-28
PC-3 = tested on: PC-3
HT-29 = tested on: HT-29
HOP-92 = tested on: HOP-92
BT-549 = tested on: BT-549
SK-OV-3 = tested on: SK-OV-3
RPMI-8226 = tested on: RPMI-8226
HOP-62 = tested on: HOP-62
K562 = tested on: K562
HL-60 = tested on: HL-60
CCRF-CEM = tested on: CCRF-CEM
MOLT-4 = tested on: MOLT-4
SN12C = tested on: SN12C
HCC 2998 = tested on: HCC 2998

CN1CCN(c2ccncc2S(=O)(=O)N2CCN(C)CC2)CC1
GI50 (NCI-H522): > 100 µM (inactive) | GI50 (KM12): > 100 µM (inactive) | GI50 (UACC-257): > 100 µM (inactive) | GI50 (ACHN): > 100 µM (inactive) | GI50 (U-251): > 100 µM (inactive) | GI50 (IGROV-1): > 100 µM (inactive) | GI50 (UO-31): > 100 µM (inactive) | GI50 (HCT-116): > 100 µM (inactive) | GI50 (COLO 205): > 100 µM (inactive) | GI50 (RXF 393): > 100 µM (inactive) | GI50 (OVCAR-4): > 100 µM (inactive) | GI50 (OVCAR-3): > 100 µM (inactive) | GI50 (SK-MEL-2): > 100 µM (inactive) | GI50 (SF-539): > 100 µM (inactive) | GI50 (MCF7): > 100 µM (inactive) | GI50 (Hs-578T): > 100 µM (inactive) | GI50 (OVCAR-8): > 100 µM (inactive) | GI50 (SNB-75): > 100 µM (inactive) | GI50 (EKVX): > 100 µM (inactive) | GI50 (SF-268): > 100 µM (inactive) | GI50 (HCT-15): > 100 µM | GI50 (SF-295): > 100 µM (inactive) | GI50 (MDA-MB-435): > 100 µM (inactive) | GI50 (SK-MEL-5): > 100 µM (inactive) | GI50 (NCI-H226): > 100 µM (inactive) | GI50 (NCI-H460): > 100 µM (inactive) | GI50 (NCI/ADR-RES): > 100 µM (inactive) | GI50 (A549): > 100 µM (inactive) | GI50 (A498): > 100 µM (inactive) | GI50 (Malme-3M): > 100 µM (inactive) | GI50 (MDA-MB-231): > 100 µM (inactive) | GI50 (CAKI-1): > 100 µM (inactive) | GI50 (T47D): > 100 µM (inactive) | GI50 (LOX IMVI): > 100 µM (inactive) | GI50 (SW-620): > 100 µM (inactive) | GI50 (786-0): > 100 µM (inactive) | GI50 (NCI-H23): > 100 µM (inactive) | GI50 (OVCAR-5): > 100 µM (inactive) | GI50 (UACC-62): > 100 µM (inactive) | GI50 (SNB-19): > 100 µM (inactive) | GI50 (DU-145): > 100 µM (inactive) | GI50 (TK-10): > 100 µM (inactive) | GI50 (M14): > 100 µM (inactive) | GI50 (MDA-N): > 100 µM (inactive) | GI50 (SK-MEL-28): > 100 µM (inactive) | GI50 (PC-3): > 100 µM (inactive) | GI50 (HT-29): > 100 µM (inactive) | GI50 (HOP-92): > 100 µM (inactive) | GI50 (BT-549): > 100 µM (inactive) | GI50 (SK-OV-3): > 100 µM (inactive) | GI50 (RPMI-8226): > 100 µM (inactive) | GI50 (HOP-62): > 100 µM (inactive) | GI50 (K562): > 100 µM (inactive)

CCOC(=O)Cc1c(C)c2cc(C(=O)c3ccccc3)c(O)cc2oc1=O
GI50 (NCI-H522): 27 µM (inactive) | GI50 (UACC-257): 28.7 µM (inactive) | GI50 (ACHN): 29.3 µM (inactive) | GI50 (HL-60): 24.4 µM (inactive) | GI50 (U-251): 20.8 µM (inactive) | GI50 (IGROV-1): 39.6 µM (inactive) | GI50 (HCT-116): 33.3 µM (inactive) | GI50 (COLO 205): 18.5 µM (inactive) | GI50 (RXF 393): 41.1 µM (inactive) | GI50 (OVCAR-4): 31.8 µM (inactive) | GI50 (OVCAR-3): 17.8 µM (inactive) | GI50 (SK-MEL-2): 14.9 µM (inactive) | GI50 (SF-539): 20.4 µM (inactive) | GI50 (MCF7): 22.4 µM (inactive) | GI50 (Hs-578T): 26.2 µM (inactive) | GI50 (OVCAR-8): 34.1 µM (inactive) | GI50 (SNB-75): 30.4 µM (inactive) | GI50 (EKVX): 25.5 µM (inactive) | GI50 (SF-268): 24.9 µM (inactive) | GI50 (HCT-15): 29.4 µM | GI50 (SF-295): 34.8 µM (inactive) | GI50 (MDA-MB-435): 33 µM (inactive) | GI50 (SK-MEL-5): 17.6 µM (inactive) | GI50 (NCI-H226): 27.3 µM (inactive) | GI50 (NCI-H460): 33.3 µM (inactive) | GI50 (NCI/ADR-RES): 26.1 µM (inactive) | GI50 (CCRF-CEM): 31.1 µM (inactive) | GI50 (A549): 25.8 µM (inactive) | GI50 (MOLT-4): 36.1 µM (inactive) | GI50 (A498): 25.3 µM (inactive) | GI50 (Malme-3M): 25.4 µM (inactive) | GI50 (MDA-MB-231): 23.8 µM (inactive) | GI50 (CAKI-1): 30.6 µM (inactive) | GI50 (T47D): 28.2 µM (inactive) | GI50 (LOX IMVI): 30.3 µM (inactive) | GI50 (SW-620): 45.1 µM (inactive) | GI50 (786-0): 39.8 µM (inactive) | GI50 (SN12C): 31.6 µM (inactive) | GI50 (NCI-H23): 19.3 µM (inactive) | GI50 (OVCAR-5): 26 µM (inactive) | GI50 (UACC-62): 35.3 µM (inactive) | GI50 (SNB-19): 33.7 µM (inactive) | GI50 (DU-145): 30.8 µM (inactive) | GI50 (TK-10): 43.4 µM (inactive) | GI50 (M14): 34.3 µM (inactive) | GI50 (MDA-N): 33.3 µM (inactive) | GI50 (SK-MEL-28): 34.2 µM (inactive) | GI50 (PC-3): 24.8 µM (inactive) | GI50 (HT-29): 39.2 µM (inactive) | GI50 (HOP-92): 21.6 µM (inactive) | GI50 (BT-549): 17.8 µM (inactive) | GI50 (RPMI-8226): 29.3 µM (inactive) | GI50 (HOP-62): 35.6 µM (inactive) | GI50 (K562): 24.7 µM (inactive) | GI50 (HCC 2998): 32.6 µM (inactive)

O=c1[nH]nc(Cc2ccccc2)n1/N=C/c1ccc([N+](=O)[O-])o1
GI50 (NCI-H522): 1.39 µM (inactive) | GI50 (KM12): 2.15 µM (inactive) | GI50 (UACC-257): 3.56 µM (inactive) | GI50 (ACHN): 3.4 µM (inactive) | GI50 (HL-60): 2.95 µM (inactive) | GI50 (U-251): 2.87 µM (inactive) | GI50 (IGROV-1): 2.67 µM (inactive) | GI50 (UO-31): 4.47 µM (inactive) | GI50 (HCT-116): 2.06 µM (inactive) | GI50 (COLO 205): 1.89 µM (inactive) | GI50 (RXF 393): 1.88 µM (inactive) | GI50 (OVCAR-4): 4.92 µM (inactive) | GI50 (OVCAR-3): 0.292 µM (active) | GI50 (SK-MEL-2): 3.56 µM (inactive) | GI50 (SF-539): 2.11 µM (inactive) | GI50 (MCF7): 1.86 µM (inactive) | GI50 (Hs-578T): 1 µM (active) | GI50 (OVCAR-8): 2.16 µM (inactive) | GI50 (SNB-75): 3.3 µM (inactive) | GI50 (EKVX): 3.77 µM (inactive) | GI50 (SF-268): 2.59 µM (inactive) | GI50 (HCT-15): 2.08 µM | GI50 (SF-295): 7.62 µM (inactive) | GI50 (MDA-MB-435): 1.57 µM (inactive) | GI50 (SK-MEL-5): 1.83 µM (inactive) | GI50 (NCI-H226): 12.5 µM (inactive) | GI50 (NCI-H460): 3.46 µM (inactive) | GI50 (NCI/ADR-RES): 2.75 µM (inactive) | GI50 (CCRF-CEM): 1.16 µM (inactive) | GI50 (A549): 4.1 µM (inactive) | GI50 (MOLT-4): 2.42 µM (inactive) | GI50 (A498): 7.41 µM (inactive) | GI50 (Malme-3M): 1.51 µM (inactive) | GI50 (MDA-MB-231): 3.38 µM (inactive) | GI50 (CAKI-1): 3.11 µM (inactive) | GI50 (T47D): 6.7 µM (inactive) | GI50 (LOX IMVI): 0.659 µM (active) | GI50 (SW-620): 1.39 µM (inactive) | GI50 (786-0): 2.76 µM (inactive) | GI50 (SN12C): 3.31 µM (inactive) | GI50 (NCI-H23): 3.57 µM (inactive) | GI50 (OVCAR-5): 6.68 µM (inactive) | GI50 (UACC-62): 1.75 µM (inactive) | GI50 (SNB-19): 4.83 µM (inactive) | GI50 (DU-145): 3.77 µM (inactive) | GI50 (TK-10): 4.36 µM (inactive) | GI50 (M14): 2.24 µM (inactive) | GI50 (MDA-N): 1.69 µM (inactive) | GI50 (SK-MEL-28): 2.2 µM (inactive) | GI50 (PC-3): 3.15 µM (inactive) | GI50 (HT-29): 1.68 µM (inactive) | GI50 (HOP-92): 3.03 µM (inactive) | GI50 (BT-549): 0.308 µM (active) | GI50 (SK-OV-3): 15.4 µM (inactive) | GI50 (RPMI-8226): 2.63 µM (inactive) | GI50 (HOP-62): 3.08 µM (inactive) | GI50 (K562): 4.09 µM (inactive) | GI50 (HCC 2998): 3.99 µM (inactive)
